Experiments:
[1] = target: T1, α6(N204I)β2γ2 GABAA receptor (Homo sapiens, UniProt P18507+P47870+Q16445, N223I); experiment: Midazolam potentiation of EC10 GABA currents, whole-cell patch clamp, HEK293T; format: cell-based
T1 construct: expressed in transfected cells; host or cells: HEK293T

[2] = target: T2, α1(T163P)β2γ2 GABAA receptor (Homo sapiens, UniProt P14867+P18507+P47870, T190P); experiment: as above; format: cell-based
T2 construct: expressed in transfected cells; host or cells: HEK293T
T2 sequence (P14867 28-456 T190P): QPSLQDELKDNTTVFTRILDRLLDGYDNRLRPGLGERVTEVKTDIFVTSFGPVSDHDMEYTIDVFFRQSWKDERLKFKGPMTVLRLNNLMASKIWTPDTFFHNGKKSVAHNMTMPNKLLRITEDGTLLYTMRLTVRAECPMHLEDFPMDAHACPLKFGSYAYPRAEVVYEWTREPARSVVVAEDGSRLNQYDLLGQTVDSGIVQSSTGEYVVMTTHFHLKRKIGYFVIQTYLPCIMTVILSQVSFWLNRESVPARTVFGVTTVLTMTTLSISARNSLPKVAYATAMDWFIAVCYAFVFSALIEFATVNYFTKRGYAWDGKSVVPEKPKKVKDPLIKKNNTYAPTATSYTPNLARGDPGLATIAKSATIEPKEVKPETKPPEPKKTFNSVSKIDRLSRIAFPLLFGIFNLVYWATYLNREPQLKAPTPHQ
T2 sequence (P47870 25-512 limits assumed): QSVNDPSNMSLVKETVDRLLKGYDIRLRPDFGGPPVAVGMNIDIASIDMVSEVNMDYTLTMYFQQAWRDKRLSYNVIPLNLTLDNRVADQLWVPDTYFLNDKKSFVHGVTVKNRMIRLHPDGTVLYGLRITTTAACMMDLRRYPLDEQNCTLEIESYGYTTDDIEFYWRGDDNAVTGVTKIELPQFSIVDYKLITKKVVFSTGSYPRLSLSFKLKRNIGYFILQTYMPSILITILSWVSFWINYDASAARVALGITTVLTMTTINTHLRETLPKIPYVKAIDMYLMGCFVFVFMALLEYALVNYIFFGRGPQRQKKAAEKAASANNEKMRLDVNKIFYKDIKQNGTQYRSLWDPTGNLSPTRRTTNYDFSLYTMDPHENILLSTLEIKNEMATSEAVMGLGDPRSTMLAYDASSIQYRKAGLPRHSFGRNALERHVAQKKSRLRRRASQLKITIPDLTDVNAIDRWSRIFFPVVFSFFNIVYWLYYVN
T2 sequence (P18507 40-467 isoform P18507-1 limits assumed, stated change not applied): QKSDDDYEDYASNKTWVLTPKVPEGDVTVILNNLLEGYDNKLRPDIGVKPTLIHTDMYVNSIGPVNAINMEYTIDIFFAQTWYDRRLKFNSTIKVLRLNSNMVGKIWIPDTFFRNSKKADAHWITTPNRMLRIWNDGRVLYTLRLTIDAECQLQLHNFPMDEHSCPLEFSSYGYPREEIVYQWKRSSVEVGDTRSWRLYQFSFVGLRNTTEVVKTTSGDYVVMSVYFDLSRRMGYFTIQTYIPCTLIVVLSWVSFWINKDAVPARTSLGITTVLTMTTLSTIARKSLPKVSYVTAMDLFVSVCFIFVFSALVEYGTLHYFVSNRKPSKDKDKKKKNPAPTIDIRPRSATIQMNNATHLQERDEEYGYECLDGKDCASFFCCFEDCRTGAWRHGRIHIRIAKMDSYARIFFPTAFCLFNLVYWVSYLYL

T1 sequence (Q16445 20-453 N223I): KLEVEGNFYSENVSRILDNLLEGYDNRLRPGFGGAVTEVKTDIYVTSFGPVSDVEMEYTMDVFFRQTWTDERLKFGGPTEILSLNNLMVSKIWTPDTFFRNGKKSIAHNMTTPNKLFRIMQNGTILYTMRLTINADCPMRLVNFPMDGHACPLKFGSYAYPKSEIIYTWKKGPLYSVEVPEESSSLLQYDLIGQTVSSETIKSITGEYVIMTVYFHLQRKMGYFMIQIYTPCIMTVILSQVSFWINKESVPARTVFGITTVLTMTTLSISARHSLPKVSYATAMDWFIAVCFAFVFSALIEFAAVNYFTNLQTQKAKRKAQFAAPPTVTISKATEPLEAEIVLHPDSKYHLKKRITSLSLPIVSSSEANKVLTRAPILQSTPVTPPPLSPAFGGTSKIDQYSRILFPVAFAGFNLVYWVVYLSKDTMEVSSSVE
T1 sequence (P47870 26-474 isoform P47870-1 limits assumed, stated change not applied): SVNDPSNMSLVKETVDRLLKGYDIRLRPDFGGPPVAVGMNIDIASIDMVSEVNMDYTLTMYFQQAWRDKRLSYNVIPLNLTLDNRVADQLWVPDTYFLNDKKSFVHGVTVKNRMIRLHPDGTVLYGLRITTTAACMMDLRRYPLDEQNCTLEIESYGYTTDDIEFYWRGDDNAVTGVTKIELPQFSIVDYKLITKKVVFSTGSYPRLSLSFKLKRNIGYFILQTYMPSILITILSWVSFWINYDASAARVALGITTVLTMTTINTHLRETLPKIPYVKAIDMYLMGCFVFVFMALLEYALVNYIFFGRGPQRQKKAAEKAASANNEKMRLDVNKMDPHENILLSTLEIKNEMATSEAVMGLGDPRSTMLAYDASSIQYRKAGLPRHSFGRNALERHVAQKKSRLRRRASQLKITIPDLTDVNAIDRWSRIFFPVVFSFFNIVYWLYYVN
T1 sequence (P18507 40-467 isoform P18507-1 limits assumed, stated change not applied): as the sequence (P18507 40-467 isoform P18507-1 limits assumed, stated change not applied) above

SMILES: Cc1ncc2n1-c1ccc(Cl)cc1C(c1ccccc1F)=NC2 [midazolam]
- responsiveness to midazolam potentiation [1]: failed to convey any notable midazolam potentiation
- Midazolam potentiation (%) ([1]; 10 nM MDZ + EC10 GABA): 11.98 ± 4.42%
- Midazolam potentiation (%) ([1]; 50 nM MDZ + EC10 GABA): 19.07 ± 5.84%
- Midazolam potentiation (%) ([1]; 100 nM MDZ + EC10 GABA): 25.21 ± 7.32%
- Midazolam potentiation (%) ([1]; 500 nM MDZ + EC10 GABA): 25.85 ± 6.62%
- Midazolam potentiation (%) ([1]; 1000 nM MDZ + EC10 GABA): 19.31 ± 7.32%
- EC50 [2]: 61.1 ± 3.72 nM
- Midazolam potentiation (%) ([2]; 10 nM MDZ + EC10 GABA, α1(T163P)): 14.19 ± 4.15%
- Midazolam potentiation (%) ([2]; 50 nM MDZ + EC10 GABA, α1(T163P)): 49.96 ± 8.44%
- Midazolam potentiation (%) ([2]; 100 nM MDZ + EC10 GABA, α1(T163P)): 96.68 ± 15.00%
- Midazolam potentiation (%) ([2]; 500 nM MDZ + EC10 GABA, α1(T163P)): 124.27 ± 18.98%
- Midazolam potentiation (%) ([2]; 1000 nM MDZ + EC10 GABA, α1(T163P)): 123.00 ± 18.99%
- Max potentiation (%) ([2]; α1(T163P), Hill fit, midazolam 10-1000 nM + EC10 GABA): 127.7 ± 16.0 %
- Hill coefficient ([2]; α1(T163P), midazolam Hill fit): 2.113 ± 0.154
